Laboratory results from PMC2941777 (Molecular pharmaceutics, 2009).
Read-outs that look alike come from different tables or passages of the source. Marks after values point to notes of the source that are not given here. Blank lines part the entries; values can stand above or below the compound they belong to.

Legend:
[1] = assay type: in vivo, rat; details: 10 μM naringenin perfusate
[2] = Steady-state blood concentration after intestinal perfusion; assay type: in vivo, rat; details: tail vein blood after perfusion with 10 μM naringenin for 2.5 h
[3] = test system: UDP-glucuronosyltransferases (UGT), rat colon microsomes; test: Glucuronidation of naringenin in rat colon microsomes; assay type: in vitro ADME
[4] = test system: UDP-glucuronosyltransferases (UGT); test: as above; assay type: in vitro ADME; details: Wistar, rat, pH 7.4
[5] = cited from earlier work
[6] = test system: UDP-glucuronosyltransferases (UGT), rat liver microsomes; test: Glucuronidation of naringenin in rat liver microsomes
[7] = test system: UDP-glucuronosyltransferases (UGT); test: as above; details: Wistar, rat, pH 7.4
[8] = test system: UDP-glucuronosyltransferases (UGT), rat ileum microsomes; test: Glucuronidation of naringenin in rat ileum microsomes
[9] = test system: UDP-glucuronosyltransferases (UGT); test: as above; details: Wistar, rat, pH 7.4
[10] = test system: UDP-glucuronosyltransferases (UGT), rat jejunum microsomes; test: Glucuronidation of naringenin in rat jejunum microsomes
[11] = test system: UDP-glucuronosyltransferases (UGT); test: as above; details: Wistar, rat, pH 7.4
[12] = molecular target: efflux transporters Mrp2 and Bcrp1 (Rattus norvegicus, UniProt Q63120); assay type: in vivo; details: ileum; 50 μM MK-571 with 40 μM dipyridamole
efflux transporters Mrp2 and Bcrp1 (Rattus norvegicus, UniProt Q63120), sequence (Q63120 whole entry): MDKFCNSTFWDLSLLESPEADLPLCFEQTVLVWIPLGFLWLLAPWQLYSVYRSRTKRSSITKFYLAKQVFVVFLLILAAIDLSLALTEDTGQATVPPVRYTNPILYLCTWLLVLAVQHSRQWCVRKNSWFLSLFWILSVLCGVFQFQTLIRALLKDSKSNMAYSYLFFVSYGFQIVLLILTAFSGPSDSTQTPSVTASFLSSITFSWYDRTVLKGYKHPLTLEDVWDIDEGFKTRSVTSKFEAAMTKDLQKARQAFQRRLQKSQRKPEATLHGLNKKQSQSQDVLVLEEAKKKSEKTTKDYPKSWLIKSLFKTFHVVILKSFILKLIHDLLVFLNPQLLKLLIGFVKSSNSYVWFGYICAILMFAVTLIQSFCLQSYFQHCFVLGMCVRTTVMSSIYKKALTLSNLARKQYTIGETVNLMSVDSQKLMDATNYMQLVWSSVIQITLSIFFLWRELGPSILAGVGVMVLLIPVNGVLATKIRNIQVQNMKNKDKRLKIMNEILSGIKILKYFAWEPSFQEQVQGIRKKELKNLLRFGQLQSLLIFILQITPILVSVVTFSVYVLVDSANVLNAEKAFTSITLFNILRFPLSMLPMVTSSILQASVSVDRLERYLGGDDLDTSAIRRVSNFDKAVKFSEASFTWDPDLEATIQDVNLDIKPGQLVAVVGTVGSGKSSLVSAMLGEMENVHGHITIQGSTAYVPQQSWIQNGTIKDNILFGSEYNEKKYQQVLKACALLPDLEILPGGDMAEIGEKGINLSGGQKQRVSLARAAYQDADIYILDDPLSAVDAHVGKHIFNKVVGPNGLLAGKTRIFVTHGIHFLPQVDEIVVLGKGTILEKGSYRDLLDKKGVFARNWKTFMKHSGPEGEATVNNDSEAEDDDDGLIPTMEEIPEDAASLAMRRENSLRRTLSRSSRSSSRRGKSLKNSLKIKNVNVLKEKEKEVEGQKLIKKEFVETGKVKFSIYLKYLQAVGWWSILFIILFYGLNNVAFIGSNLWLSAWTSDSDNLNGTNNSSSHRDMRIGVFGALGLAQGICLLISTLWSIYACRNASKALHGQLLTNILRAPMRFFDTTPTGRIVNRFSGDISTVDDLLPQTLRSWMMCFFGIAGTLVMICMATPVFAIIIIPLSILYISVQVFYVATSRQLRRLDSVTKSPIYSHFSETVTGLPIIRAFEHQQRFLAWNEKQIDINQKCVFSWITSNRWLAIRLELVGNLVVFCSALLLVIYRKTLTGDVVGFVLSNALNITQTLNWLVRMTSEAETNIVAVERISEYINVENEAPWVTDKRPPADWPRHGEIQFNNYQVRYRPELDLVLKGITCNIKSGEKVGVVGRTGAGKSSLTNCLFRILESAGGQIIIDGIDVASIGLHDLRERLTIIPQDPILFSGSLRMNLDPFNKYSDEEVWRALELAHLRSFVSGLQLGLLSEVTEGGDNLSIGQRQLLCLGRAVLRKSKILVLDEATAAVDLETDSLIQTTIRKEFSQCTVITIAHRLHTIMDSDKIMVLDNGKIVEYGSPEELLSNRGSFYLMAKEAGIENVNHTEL

[13] = test system: efflux transporters Mrp2 and Bcrp1; assay type: in vivo, rat; details: 10 μM naringenin
[14] = test system: efflux transporters Mrp2 and Bcrp1; details: 50 μM MK-571 and 40 μM dipyridamole in perfusate; after 90 min; p<0.05
Caco-2 cell membranes = details: cited from earlier work
[15] = test system: UDP-glucuronosyltransferases (UGT); test: in vitro; details: Wistar, rat, pH 7.4

amounts of naringenin absorbed (% of perfused amounts or Mtotal) ([1]; colon): 68% | amounts of naringenin absorbed (% of perfused amounts or Mtotal) ([1]; duodenum): 47% | amounts of naringenin absorbed (% of perfused amounts or Mtotal) ([1]; jejunum): 39% | amounts of naringenin absorbed (% of perfused amounts or Mtotal) ([1]; terminal ileum): 42% | intact naringenin in blood [2]: not detected | R (autoact only), rate of enzyme activity activation [3]: 1.14 | Vmax-d (maximum activation of enzyme activity) [3]: 5.49 nmol/min/mg protein | Vmax-o (intrinsic enzyme activity) [3]: 1.08 nmol/min/mg protein | Km [4]: 21.2 µM | R (autoact only), rate of enzyme activity activation [6]: 0.38 | Vmax-d (maximum activation of enzyme activity) [6]: 7.40 nmol/min/mg protein | Vmax-o (intrinsic enzyme activity) [6]: 5.83 nmol/min/mg protein | Km [7]: 13.4 µM | Km [9]: 2.54 µM | R (autoact only), rate of enzyme activity activation [10]: 0.39 | Vmax-d (maximum activation of enzyme activity) [10]: 5.53 nmol/min/mg protein | Vmax-o (intrinsic enzyme activity) [10]: 2.00 nmol/min/mg protein | Km [11]: 3.62 µM
SMILES: O=C1C[C@@H](c2ccc(O)cc2)Oc2cc(O)cc(O)c21 [naringenin, Naringenin]
Vmax ([3]; sum of Vmax-0 and Vmax-d): 6.56* nmol/min/mg protein | bioavailability [5]: less than 10% | Vmax ([6]; sum of Vmax-0 and Vmax-d): 13.23* nmol/min/mg protein | Vmax [8]: 1.99* nmol/min/mg protein | Vmax ([10]; sum of Vmax-0 and Vmax-d): 7.53* nmol/min/mg protein

SMILES: CN(C)C(=O)CCSC(SCCC(=O)O)c1cccc(/C=C/c2ccc3ccc(Cl)cc3n2)c1 (centres unmarked) [MK-571]
decrease in dipyridamole-stimulated glucuronide efflux by MK-571 [12]: more than 80% | effect on the absorption of naringenin, two inhibitors used together ([13]; 50 μM MK-571 + 40 μM dipyridamole): did not change | effect on the efflux of glucuronides in duodenum and jejunum, two inhibitors used together ([13]; 50 μM MK-571 + 40 μM dipyridamole, p < 0.05): decreased substantially | effect of inhibitor on the absorption of naringenin ([13]; inhibitor alone (50 μM MK-571 or 40 μM dipyridamole), four regions of intestine): no effect | effect on the biliary excretion of aglycone, inhibitors used simultaneously [14]: increased | permeability across Caco-2 cell membranes (Caco-2 cell membranes): ~10 ×10⁻⁶ cm/s | inhibition at 40 min, 50 μM [15]: 50% | effect on metabolism rate of naringenin, MK-571 and dipyridamole used together ([6]; 10 μM naringenin, p < 0.05 vs control): decreased significantly

SMILES: OCCN(CCO)c1nc(N2CCCCC2)c2nc(N(CCO)CCO)nc(N3CCCCC3)c2n1 [dipyridamole, Dipyridamole]
permeability across Caco-2 cell membranes (Caco-2 cell membranes): ~10 ×10⁻⁶ cm/s
